In patent US5326882A, “Chemiluminescent 3-(substituted Adamant-2'-Ylidene) 1,2-dioxetanes” (Tropix, Inc., priority 1992, dated 1994):

Tests used:
[1] = molecular target: T1, alkaline phosphatase (Bos taurus, UniProt P19111); assay: Chemiluminescent signal and signal:background with enhancer polymers (Example XVII); assay type: biochemical
Protocol: Four sets of three tubes each, each tube in each set containing 450 μl of a 0.4 mM aqueous solution of one of the four 1,2-dioxetanes being compared in 0.1M diethanolamine containing 1 mM magnesium chloride, 0.02% sodium azide and 0.1% of the enhancer polymer, pH 10.0 (substrate buffer) were prepared and the background signal from each tube measured using a Berthold LB 952T luminometer (Berthold Instruments; Wildbad, Federal Republic of Germany).
Next, 50 μl of an aqueous solution, 2.83×10^-12 M of alkaline phosphatase in 0.1M diethanolamine containing 1 mM magnesium chloride, 0.02% sodium azide, pH 10.0, (final enzyme concentration 2.83×10^-13 M) was added to each tube and the chemiluminescent signals were measured in the luminometer at 5 and 20 minutes. The intensity of the chemiluminescent signals and the signal: background ratios obtained for each of the four 1,2-dioxetanes in the presence of the enhancer polymers are shown in Table III below.
The enhancer polymers used, and the symbols for such polymers used in Table III, were the following: […]

[2] = molecular target: T1, alkaline phosphatase; assay: Alkaline phosphatase detection limits, LabSystems Luminoskan (Example XXV); assay type: biochemical
Protocol: The detection means for alkaline phosphatase with different chemiluminescent 1,2-dioxetane substrates were determined as follows: Duplicates of serial dilutions (1 to 3) of alkaline phosphates were incubated at room temperature with 0.4 mM dioxetane in 0.1 M diethanolamine, 1 mM MgCl2, pH 10.0, containing 1 mg/ml of either of the polymeric enhancers Enhancer 1 or Enhancer 2, in […].
Following either a 5 or a 20 minute incubation with a substrate, the chemiluminescence intensity was measured as a 5 second integrated Relative Light Units (RLU) and plotted as in FIG. 10. […] The alkaline phosphatase concentrations at twice background were used as the detection limits in Table 5.
The luminometer used in this example was LabSystems Luminoskan microtiter plate reader.

T1 sequence (P19111 20-506 limits assumed): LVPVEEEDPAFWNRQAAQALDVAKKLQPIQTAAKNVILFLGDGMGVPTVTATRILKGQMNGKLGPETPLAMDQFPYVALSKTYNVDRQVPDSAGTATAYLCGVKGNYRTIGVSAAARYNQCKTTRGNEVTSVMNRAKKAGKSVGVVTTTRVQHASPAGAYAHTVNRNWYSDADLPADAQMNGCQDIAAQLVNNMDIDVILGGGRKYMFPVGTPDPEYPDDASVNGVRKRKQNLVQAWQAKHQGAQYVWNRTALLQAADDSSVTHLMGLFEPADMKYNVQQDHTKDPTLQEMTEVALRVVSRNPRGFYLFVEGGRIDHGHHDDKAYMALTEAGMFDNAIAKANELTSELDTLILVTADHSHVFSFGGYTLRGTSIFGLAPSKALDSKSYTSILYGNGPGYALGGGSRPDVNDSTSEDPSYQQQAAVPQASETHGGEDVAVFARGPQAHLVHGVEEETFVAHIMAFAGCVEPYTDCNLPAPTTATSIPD

SMILES: COC1(c2cccc(OP(=O)(O)O)c2)OOC12C1CC3CC2CC(Cl)(C3)C1 (stereo not shown) [Cl-AMPPD, disodium 3-(4-methoxyspiro-[1,2-dioxetane-3,2'-(5'-chloro)tricyclo[3.3.1.1^3,7]decan]-4-yl) phenyl phosphate]
- S/N ([1]; polymer BAEDM, 5 min): 102.2
- SIGNAL ([1]; polymer BAEDM, 5 min): 9086.9
- S/N ([1]; polymer BAEDM, 20 min): 193.3
- SIGNAL ([1]; polymer BAEDM, 20 min): 17185.4
- S/N ([1]; polymer BAEDM, time 0): 1.0
- SIGNAL ([1]; polymer BAEDM, time 0 (background, before enzyme)): 88.9
- S/N ([1]; polymer DAA TMQ, 5 min): 125.1
- SIGNAL ([1]; polymer DAA TMQ, 5 min): 10328.7
- S/N ([1]; polymer DAA TMQ, 20 min): 159.9
- SIGNAL ([1]; polymer DAA TMQ, 20 min): 13204.2
- S/N ([1]; polymer DAA TMQ, time 0): 1.0
- SIGNAL ([1]; polymer DAA TMQ, time 0 (background, before enzyme)): 82.6
- S/N ([1]; polymer DMQ TEQ, 5 min): 514.6
- SIGNAL ([1]; polymer DMQ TEQ, 5 min): 39712.8
- S/N ([1]; polymer DMQ TEQ, 20 min): 747.2
- SIGNAL ([1]; polymer DMQ TEQ, 20 min): 57658.0
- S/N ([1]; polymer DMQ TEQ, time 0): 1.0
- SIGNAL ([1]; polymer DMQ TEQ, time 0 (background, before enzyme)): 77.2
- SIGNAL ([1]; polymer EMERALD (sapphire and fluorescein), time 0 (background, before enzyme)): 3434.0
- S/N ([1]; polymer EMERALD, 5 min): 583.2
- SIGNAL ([1]; polymer EMERALD, 5 min): 400510.8
- S/N ([1]; polymer EMERALD, 20 min): 964.0
- SIGNAL ([1]; polymer EMERALD, 20 min): 662054.4
- S/N ([1]; polymer EMERALD, time 0): 1.0
- S/N ([1]; polymer MPB, 5 min): 257.8
- SIGNAL ([1]; polymer MPB, 5 min): 22170.5
- S/N ([1]; polymer MPB, 20 min): 306.5
- SIGNAL ([1]; polymer MPB, 20 min): 29133.9
- S/N ([1]; polymer MPB, time 0): 1.0
- SIGNAL ([1]; polymer MPB, time 0 (background, before enzyme)): 86.0
- S/N ([1]; polymer NONE, 5 min): 47.9
- SIGNAL ([1]; polymer NONE, 5 min, enzyme 2.83×10^-13 M): 4083.6
- S/N ([1]; polymer NONE, 20 min): 52.3
- SIGNAL ([1]; polymer NONE, 20 min, enzyme 2.83×10^-13 M): 4460.9
- S/N ([1]; polymer NONE, time 0): 1.0
- SIGNAL ([1]; polymer NONE, time 0 (background, before enzyme)): 85.3
- S/N ([1]; polymer S/TMQ(1:2), 5 min): 46.7
- SIGNAL ([1]; polymer S/TMQ(1:2), 5 min): 3121.4
- S/N ([1]; polymer S/TMQ(1:2), 20 min): 100.2
- SIGNAL ([1]; polymer S/TMQ(1:2), 20 min): 6696.9
- S/N ([1]; polymer S/TMQ(1:2), time 0): 1.0
- SIGNAL ([1]; polymer S/TMQ(1:2), time 0 (background, before enzyme)): 66.8
- S/N ([1]; polymer S/TMQ(1:4), 5 min): 93.9
- SIGNAL ([1]; polymer S/TMQ(1:4), 5 min): 5631.2
- S/N ([1]; polymer S/TMQ(1:4), 20 min): 165.0
- SIGNAL ([1]; polymer S/TMQ(1:4), 20 min): 9957.4
- S/N ([1]; polymer S/TMQ(1:4), time 0): 1.0
- SIGNAL ([1]; polymer S/TMQ(1:4), time 0 (background, before enzyme)): 60.0
- SIGNAL ([1]; polymer SAPPHIRE (BDMQ), time 0 (background, before enzyme)): 296.0
- S/N ([1]; polymer SAPPHIRE, 5 min): 371.6
- SIGNAL ([1]; polymer SAPPHIRE, 5 min): 51584.5
- S/N ([1]; polymer SAPPHIRE, 20 min): 505.4
- SIGNAL ([1]; polymer SAPPHIRE, 20 min): 70161.6
- S/N ([1]; polymer SAPPHIRE, time 0): 1.0
- SIGNAL ([1]; polymer TBQ-FLUOR (TBQ and fluorescein), time 0 (background, before enzyme)): 5882.7
- S/N ([1]; polymer TBQ-FLUOR, 5 min): 839.4
- SIGNAL ([1]; polymer TBQ-FLUOR, 5 min): 987572.0
- S/N ([1]; polymer TBQ-FLUOR, 20 min): 1280.0
- SIGNAL ([1]; polymer TBQ-FLUOR, 20 min): 1505971.2
- S/N ([1]; polymer TBQ-FLUOR, time 0): 1.0
- S/N ([1]; polymer TBQ, 5 min): 1249.6
- SIGNAL ([1]; polymer TBQ, 5 min): 148394.6
- S/N ([1]; polymer TBQ, 20 min): 1763.9
- SIGNAL ([1]; polymer TBQ, 20 min): 209466.8
- S/N ([1]; polymer TBQ, time 0): 1.0
- SIGNAL ([1]; polymer TBQ, time 0 (background, before enzyme)): 118.8
- S/N ([1]; polymer TEQ, 5 min): 397.0
- SIGNAL ([1]; polymer TEQ, 5 min): 26551.0
- S/N ([1]; polymer TEQ, 20 min): 513.5
- SIGNAL ([1]; polymer TEQ, 20 min): 34467.2
- S/N ([1]; polymer TEQ, time 0): 1.0
- SIGNAL ([1]; polymer TEQ, time 0 (background, before enzyme)): 67.1
- S/N ([1]; polymer TMQ, 5 min): 165.0
- SIGNAL ([1]; polymer TMQ, 5 min): 9941.0
- S/N ([1]; polymer TMQ, 20 min): 226.4
- SIGNAL ([1]; polymer TMQ, 20 min): 13640.5
- S/N ([1]; polymer TMQ, time 0): 1.0
- SIGNAL ([1]; polymer TMQ, time 0 (background, before enzyme)): 50.3
- Alkaline phosphatase detection limit (at 2× background) ([2]; SAPPHIRE II, 5 MINUTE INCUBATION): 0.0008 pM
- Alkaline phosphatase detection limit (at 2× background) ([2]; SAPPHIRE II, 20 MINUTE INCUBATION): 0.00043 pM
- Alkaline phosphatase detection limit (at 2× background) ([2]; SAPPHIRE, 5 MINUTE INCUBATION): 0.0014 pM
- Alkaline phosphatase detection limit (at 2× background) ([2]; SAPPHIRE, 20 MINUTE INCUBATION): 0.0005 pM
